This is an account of results in ChEMBL document CHEMBL3352353, “Dicarba analogues of α-conotoxin RgIA. Structure, stability, and activity at potential pain targets” (J Med Chem, 2014).

pIC50: −log10 of the molar value. Calls of active or inactive are those of the source. The rule behind the calls is not given here. Positions of bridges follow the written chain, without caps; N, C: chain ends. Non-standard residues stand in square brackets, D forms with d. Residues, ends and D or L forms follow the SMILES beside them. AllylGly = C=CC[C@H](N)C(=O)O

The target in data set [1] is T1, Nicotinic acetylcholine receptor alpha9/alpha10 (Rattus norvegicus) (UniProt P43144+Q9JLB5). Kind of data set: Inhibition of rat alpha9alpha10 nAChR expressed in Xenopus oocytes assessed as inhibition of Ach-evoked current at 3 uM after 5 mins by voltage-clamp technique. Format: cell-based.
The target in data set [2] is Voltage-dependent N-type calcium channel subunit alpha-1B (Rattus norvegicus) (UniProt Q02294). Kind of data set: Inhibition of N-type Ca channel in Wistar rat DRG neuron at 1 nM by whole cell patch clamp technique relative to control. In general terms: Patch clamp records ionic current or voltage across a cell membrane.
For data set [3], the target named is T2, Neuronal acetylcholine receptor subunit alpha-7 (Homo sapiens, UniProt P36544). Kind of data set: Inhibition of human alpha7 nAChR expressed in Xenopus oocytes assessed as inhibition of Ach-evoked current at 3 uM after 5 mins by voltage-clamp technique. The format is cell-based.
Data set [4] addresses Nicotinic acetylcholine receptor alpha9/alpha10 (Rattus norvegicus, UniProt P43144+Q9JLB5). Kind of data set: (§1) Inhibition of rat alpha9alpha10 nAChR expressed in Xenopus oocytes assessed as inhibition of Ach-evoked current after 5 mins by voltage-clamp technique. The format is cell-based.
Data set [5] concerns the target T2, Neuronal acetylcholine receptor subunit alpha-7. Kind of data set: Inhibition of human alpha7 nAChR expressed in Xenopus oocytes assessed as inhibition of Ach-evoked current after 5 mins by voltage-clamp technique. The format is cell-based.
Data set [6] addresses T3, GABA-B receptor (Homo sapiens) (UniProt Q9UBS5+O75899). Kind of data set: Inhibition of human GABAB R1/R2 receptor expressed in HEK293 cells co-expressing human Cav2.2 alpha1B/alpha2delta1/beta3 channel assessed as inhibition of depolarization-activated Ba2+ current at 200 nM by whole cell patch clamp technique relative to control. Format: cell-based.
The target of data set [7] is T1, Nicotinic acetylcholine receptor alpha9/alpha10 (Rattus norvegicus). The description is as §1. The format is cell-based.
For data set [8], the target named is Voltage-dependent N-type calcium channel subunit alpha-1B (Rattus norvegicus) (UniProt Q02294). Kind of data set: Inhibition of N-type Ca channel in Wistar rat DRG neuron at 100 nM by whole cell patch clamp technique relative to control.
Data set [9] has as its target T1, Nicotinic acetylcholine receptor alpha9/alpha10 (Rattus norvegicus). Kind of data set: Inhibition of rat alpha9alpha10 nAChR expressed in Xenopus oocytes assessed as inhibition of Ach-evoked current at 30 uM after 5 mins by voltage-clamp technique. Format: cell-based.
The target of data set [10] is T4, Voltage-dependent N-type calcium channel subunit alpha-1B/Voltage-dependent calcium channel subunit alpha-2/delta-1/Voltage-dependent L-type calcium channel subunit beta-3 (Homo sapiens) (UniProt P54289+Q00975+P54284). Kind of data set: Inhibition of human Cav2.2 alpha1B/alpha2delta1/beta3 channel expressed in HEK293 cells assessed as inhibition of depolarization-activated Ba2+ current at 1 uM by whole cell patch clamp technique relative to control. Format: cell-based.

In data set [11] the target is T4, Voltage-dependent N-type calcium channel subunit alpha-1B/Voltage-dependent calcium channel subunit alpha-2/delta-1/Voltage-dependent L-type calcium channel subunit beta-3 (Homo sapiens). Kind of data set: Inhibition of human GABAB R1/R2 receptor expressed in HEK293 cells co-expressing human Cav2.2 alpha1B/alpha2delta1/beta3 channel assessed as inhibition of depolarization-activated Ba2+ current at 50 uM followed by compound washout by whole cell patch clamp technique relative to control. The format is cell-based.

A short description of data set [12]: Metabolic stability in human serum assessed as compound remaining at 3 mM after 1 hr by RP-HPLC analysis. The settings on record: read-out: Stability. The format is ADME, cell-free.
Data set [13] addresses T3, GABA-B receptor (Homo sapiens). Kind of data set: Inhibition of human GABAB R1/R2 receptor expressed in HEK293 cells co-expressing human Cav2.2 alpha1B/alpha2delta1/beta3 channel assessed as inhibition of depolarization-activated Ba2+ current at 1 uM by whole cell patch clamp technique relative to control. The format is cell-based.
The target is the same in data set [14]. Kind of data set: Inhibition of human GABAB R1/R2 receptor expressed in HEK293 cells co-expressing human Cav2.2 alpha1B/alpha2delta1/beta3 channel assessed as inhibition of depolarization-activated Ba2+ current at 1 uM followed by compound washout by whole cell patch clamp technique relative to control. Format: cell-based.
The nature of data set [15]: Metabolic stability in human serum assessed as compound remaining at 3 mM after 24 hrs by RP-HPLC analysis. Format: ADME, cell-free. As to conditions: read-out: Stability.
In data set [16] the target is T3, GABA-B receptor (Homo sapiens). Kind of data set: Inhibition of human GABAB R1/R2 receptor expressed in HEK293 cells co-expressing human Cav2.2 alpha1B/alpha2delta1/beta3 channel assessed as inhibition of depolarization-activated Ba2+ current depolarization-activated Ba2+ current at 50 uM by whole cell patch clamp technique relative to control. The format is cell-based.

The target is the same in data set [17]. Kind of data set: Inhibition of human GABAB R1/R2 receptor expressed in HEK293 cells co-expressing human Cav2.2 alpha1B/alpha2delta1/beta3 channel assessed as inhibition of depolarization-activated Ba2+ current by whole cell patch clamp technique relative to control. The format is cell-based.

Voltage-dependent N-type calcium channel subunit alpha-1B (Rattus norvegicus), sequence (Q02294 whole entry, looked up): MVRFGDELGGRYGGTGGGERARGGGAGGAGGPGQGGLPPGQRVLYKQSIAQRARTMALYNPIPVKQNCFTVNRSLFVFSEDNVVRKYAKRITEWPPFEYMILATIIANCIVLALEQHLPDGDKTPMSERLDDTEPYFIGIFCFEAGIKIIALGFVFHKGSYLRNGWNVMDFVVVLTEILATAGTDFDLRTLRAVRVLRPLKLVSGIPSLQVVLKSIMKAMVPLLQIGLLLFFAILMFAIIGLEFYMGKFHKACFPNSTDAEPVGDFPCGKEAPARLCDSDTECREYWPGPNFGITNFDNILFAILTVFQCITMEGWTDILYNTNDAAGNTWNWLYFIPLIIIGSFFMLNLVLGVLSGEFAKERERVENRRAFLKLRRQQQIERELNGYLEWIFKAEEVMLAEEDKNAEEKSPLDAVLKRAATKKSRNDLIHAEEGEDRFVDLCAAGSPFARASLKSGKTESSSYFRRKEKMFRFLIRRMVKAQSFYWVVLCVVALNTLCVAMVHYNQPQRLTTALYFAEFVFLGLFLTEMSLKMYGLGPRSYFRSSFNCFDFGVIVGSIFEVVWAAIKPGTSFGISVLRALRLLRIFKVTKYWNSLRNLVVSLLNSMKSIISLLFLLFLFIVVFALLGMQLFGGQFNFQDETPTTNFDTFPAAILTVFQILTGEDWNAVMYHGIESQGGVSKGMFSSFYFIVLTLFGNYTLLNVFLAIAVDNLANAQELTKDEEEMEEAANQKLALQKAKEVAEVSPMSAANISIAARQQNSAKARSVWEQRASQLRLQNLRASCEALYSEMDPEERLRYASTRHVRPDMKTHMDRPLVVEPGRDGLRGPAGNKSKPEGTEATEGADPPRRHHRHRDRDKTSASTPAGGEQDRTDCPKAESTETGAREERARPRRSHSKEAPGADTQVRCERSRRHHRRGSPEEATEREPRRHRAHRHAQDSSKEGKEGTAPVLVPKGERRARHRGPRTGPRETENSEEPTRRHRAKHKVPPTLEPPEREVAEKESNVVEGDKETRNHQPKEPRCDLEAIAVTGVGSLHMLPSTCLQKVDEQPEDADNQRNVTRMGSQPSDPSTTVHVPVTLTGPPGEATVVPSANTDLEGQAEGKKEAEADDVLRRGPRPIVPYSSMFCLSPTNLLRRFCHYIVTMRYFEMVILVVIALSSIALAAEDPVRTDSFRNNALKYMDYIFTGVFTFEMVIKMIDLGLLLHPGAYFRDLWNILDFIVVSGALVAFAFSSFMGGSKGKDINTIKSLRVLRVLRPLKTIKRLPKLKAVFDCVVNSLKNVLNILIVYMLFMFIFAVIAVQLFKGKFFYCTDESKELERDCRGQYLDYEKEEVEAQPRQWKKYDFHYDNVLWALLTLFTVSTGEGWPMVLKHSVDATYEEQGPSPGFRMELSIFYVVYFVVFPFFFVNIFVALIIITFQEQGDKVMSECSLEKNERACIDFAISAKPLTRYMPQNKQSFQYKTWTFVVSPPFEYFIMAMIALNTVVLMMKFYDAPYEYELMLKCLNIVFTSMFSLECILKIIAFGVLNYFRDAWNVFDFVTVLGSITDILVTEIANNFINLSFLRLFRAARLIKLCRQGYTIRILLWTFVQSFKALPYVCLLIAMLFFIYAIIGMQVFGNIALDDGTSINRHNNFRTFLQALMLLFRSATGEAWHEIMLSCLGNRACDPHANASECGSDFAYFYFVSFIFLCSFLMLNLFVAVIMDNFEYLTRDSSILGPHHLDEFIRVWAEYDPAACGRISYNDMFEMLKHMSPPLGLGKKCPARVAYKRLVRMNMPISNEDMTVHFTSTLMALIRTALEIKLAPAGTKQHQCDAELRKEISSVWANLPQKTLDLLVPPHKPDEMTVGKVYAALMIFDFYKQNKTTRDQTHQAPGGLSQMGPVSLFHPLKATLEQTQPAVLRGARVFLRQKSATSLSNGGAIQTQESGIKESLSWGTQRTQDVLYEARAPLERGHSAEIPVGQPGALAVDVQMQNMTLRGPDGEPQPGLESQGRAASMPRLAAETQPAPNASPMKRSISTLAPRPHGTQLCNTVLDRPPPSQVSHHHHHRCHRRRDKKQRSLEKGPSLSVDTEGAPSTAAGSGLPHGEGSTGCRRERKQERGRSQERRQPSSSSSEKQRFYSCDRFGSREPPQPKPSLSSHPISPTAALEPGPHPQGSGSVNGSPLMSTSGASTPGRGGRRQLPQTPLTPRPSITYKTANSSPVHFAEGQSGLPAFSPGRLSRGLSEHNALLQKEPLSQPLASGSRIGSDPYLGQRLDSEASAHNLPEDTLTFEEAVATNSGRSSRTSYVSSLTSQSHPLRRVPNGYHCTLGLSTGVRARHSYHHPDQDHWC
T2 sequence (P36544 whole entry): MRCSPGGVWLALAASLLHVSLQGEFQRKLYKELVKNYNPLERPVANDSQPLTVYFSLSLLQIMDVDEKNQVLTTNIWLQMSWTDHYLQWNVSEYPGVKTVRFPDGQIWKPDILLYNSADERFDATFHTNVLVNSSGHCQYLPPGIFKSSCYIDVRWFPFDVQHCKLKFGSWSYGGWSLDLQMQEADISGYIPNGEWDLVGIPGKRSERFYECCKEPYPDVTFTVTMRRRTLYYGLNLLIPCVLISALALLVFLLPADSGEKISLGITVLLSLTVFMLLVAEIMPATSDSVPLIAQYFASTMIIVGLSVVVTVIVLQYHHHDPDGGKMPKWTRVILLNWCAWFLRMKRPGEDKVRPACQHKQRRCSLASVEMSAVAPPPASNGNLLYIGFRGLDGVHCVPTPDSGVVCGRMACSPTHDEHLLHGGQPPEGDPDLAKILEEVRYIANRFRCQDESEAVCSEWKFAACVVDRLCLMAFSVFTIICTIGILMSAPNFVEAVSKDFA
Nicotinic acetylcholine receptor alpha9/alpha10, sequence (P43144 whole entry): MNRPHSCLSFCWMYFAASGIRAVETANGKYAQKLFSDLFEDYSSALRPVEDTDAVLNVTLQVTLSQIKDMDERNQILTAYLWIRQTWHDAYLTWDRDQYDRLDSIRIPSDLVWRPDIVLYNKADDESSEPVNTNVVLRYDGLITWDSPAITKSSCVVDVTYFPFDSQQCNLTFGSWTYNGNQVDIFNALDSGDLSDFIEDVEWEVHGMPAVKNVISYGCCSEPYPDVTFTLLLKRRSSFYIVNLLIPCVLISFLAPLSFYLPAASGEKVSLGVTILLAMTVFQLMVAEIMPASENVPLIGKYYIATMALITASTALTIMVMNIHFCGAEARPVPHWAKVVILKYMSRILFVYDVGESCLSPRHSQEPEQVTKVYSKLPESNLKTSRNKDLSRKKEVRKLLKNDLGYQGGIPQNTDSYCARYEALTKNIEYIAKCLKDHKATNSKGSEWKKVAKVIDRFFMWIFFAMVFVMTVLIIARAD
Nicotinic acetylcholine receptor alpha9/alpha10, sequence (Q9JLB5 whole entry): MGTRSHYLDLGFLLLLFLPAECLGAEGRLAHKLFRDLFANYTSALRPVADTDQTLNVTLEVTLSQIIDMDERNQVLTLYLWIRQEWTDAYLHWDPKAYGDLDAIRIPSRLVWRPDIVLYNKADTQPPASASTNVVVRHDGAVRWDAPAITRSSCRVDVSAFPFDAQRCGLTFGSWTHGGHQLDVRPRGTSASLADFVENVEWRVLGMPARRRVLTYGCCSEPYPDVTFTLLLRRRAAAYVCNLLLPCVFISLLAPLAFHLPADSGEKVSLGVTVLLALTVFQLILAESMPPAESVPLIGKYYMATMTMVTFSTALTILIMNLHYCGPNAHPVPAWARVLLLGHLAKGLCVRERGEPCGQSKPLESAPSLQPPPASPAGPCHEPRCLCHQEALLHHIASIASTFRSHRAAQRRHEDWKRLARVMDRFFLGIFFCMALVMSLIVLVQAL

As a reminder, the inhibition is the drop in the measured response relative to a control, in per cent. Broadly, the pIC50 is the IC50 on a negative log10 scale, so that one unit is a factor of ten. For the compound `N=C(N)NCCC[C@H](NC(=O)[C@@H]1C/C=C\C[C@@H]2NC(=O)[C@@H](NC(=O)CN)CSSC[C@H](NC(=O)[C@H](CCCNC(=N)N)NC(=O)[C@@H]3CCCN3C(=O)[C@H](CC(=O)O)NC(=O)[C@H](CO)NC2=O)C(=O)N[C@@H](CCCNC(=N)N)C(=O)N[C@@H](Cc2ccc(O)cc2)C(=O)N[C@@H](CCCNC(=N)N)C(=O)N1)C(=O)O` (H-GC[AllylGly]SDPRCRYR[AllylGly]R-OH; disulfide 2-8; staple (Z) 3-12), the inhibition in data set [1] was 31.5%. The inhibition entry in data set [2] and in data set [3] was “inactive” in each case. Moreover, the pIC50 in [4] is 5.83.
Consider `N=C(N)NCCC[C@H](NC(=O)[C@@H]1CSSC[C@@H]2NC(=O)[C@@H](NC(=O)CN)CSSC[C@H](NC(=O)[C@H](CCCNC(=N)N)NC(=O)[C@@H]3CCCN3C(=O)[C@H](CC(=O)O)NC(=O)[C@H](CO)NC2=O)C(=O)N[C@@H](CCCNC(=N)N)C(=O)N[C@@H](Cc2ccc(O)cc2)C(=O)N[C@@H](CCCNC(=N)N)C(=O)N1)C(=O)O`, for which the pIC50 in [5] is 5.48. Besides, the inhibition entry in data set [5] is “Dose-dependent effect”; in data set [6] it was 20%; in data set [7], “Dose-dependent effect”; in [8] it was 60.6%.
`N=C(N)NCCC[C@H](NC(=O)[C@@H]1CSSC[C@@H]2NC(=O)[C@@H](NC(=O)CN)C/C=C/C[C@H](NC(=O)[C@H](CCCNC(=N)N)NC(=O)[C@@H]3CCCN3C(=O)[C@H](CC(=O)O)NC(=O)[C@H](CO)NC2=O)C(=O)N[C@@H](CCCNC(=N)N)C(=O)N[C@@H](Cc2ccc(O)cc2)C(=O)N[C@@H](CCCNC(=N)N)C(=O)N1)C(=O)O`: the inhibition entry in data set [9] was “inactive”. Besides, the inhibition result in data set [8] is “Active”.
Take `N=C(N)NCCC[C@H](NC(=O)[C@@H]1CSSC[C@@H]2NC(=O)[C@@H](NC(=O)CN)C/C=C\C[C@H](NC(=O)[C@H](CCCNC(=N)N)NC(=O)[C@@H]3CCCN3C(=O)[C@H](CC(=O)O)NC(=O)[C@H](CO)NC2=O)C(=O)N[C@@H](CCCNC(=N)N)C(=O)N[C@@H](Cc2ccc(O)cc2)C(=O)N[C@@H](CCCNC(=N)N)C(=O)N1)C(=O)O`: the inhibition result in data set [9], in [10] and in data set [11] was “inactive” each time. The remaining at 1 h, 3000 µM in [12] stood at 30%. Moreover, the results for the inhibition in data set [13] and in data set [17] were 35% and “Dose-dependent effect”, respectively. Also, the inhibition result in [14], in data set [8] and in data set [16] was “Active” throughout. Besides, the remaining at 24 h, 3000 µM in [15] is 2%.
Take `N=C(N)NCCC[C@H](NC(=O)[C@@H]1C/C=C/C[C@@H]2NC(=O)[C@@H](NC(=O)CN)CSSC[C@H](NC(=O)[C@H](CCCNC(=N)N)NC(=O)[C@@H]3CCCN3C(=O)[C@H](CC(=O)O)NC(=O)[C@H](CO)NC2=O)C(=O)N[C@@H](CCCNC(=N)N)C(=O)N[C@@H](Cc2ccc(O)cc2)C(=O)N[C@@H](CCCNC(=N)N)C(=O)N1)C(=O)O` (H-GC[AllylGly]SDPRCRYR[AllylGly]R-OH; disulfide 2-8; staple (E) 3-12): the figures for the negative-log IC50 (pIC50) in [5] and in data set [4] were 5.40 and 5.94, respectively. Moreover, in [1], the inhibition amounted to 35.4%. The inhibition result in [2] and in data set [13] was “inactive” each time.
